# Laboratory results: patent publication US8993717B2, “Gadd45beta targeting agents” (Imperial Innovations Limited, priority 2009, dated 2015)
# Like-named read-outs stand apart in the source and are kept apart here. Square brackets hold non-standard residues; d marks the D form. Peptide text beside a SMILES is read from it. * marks the point of attachment. Cbz = O=C(OCc1ccccc1)*
# Assays:
# [1] = system: sh-MKK7-expressing ARH-77 cells
# [2] = molecular target: T1, Gadd45β/MKK7 interaction (Homo sapiens, UniProt O14733); test: ELISA competition assay of biotin-hGadd45β binding to coated GST-MKK7
# T1 construct: The GST-fused full-length kinase was coated for 16 h at 4° C., at a concentration of 42 nM; made in house
# T1 sequence (O14733 1-419): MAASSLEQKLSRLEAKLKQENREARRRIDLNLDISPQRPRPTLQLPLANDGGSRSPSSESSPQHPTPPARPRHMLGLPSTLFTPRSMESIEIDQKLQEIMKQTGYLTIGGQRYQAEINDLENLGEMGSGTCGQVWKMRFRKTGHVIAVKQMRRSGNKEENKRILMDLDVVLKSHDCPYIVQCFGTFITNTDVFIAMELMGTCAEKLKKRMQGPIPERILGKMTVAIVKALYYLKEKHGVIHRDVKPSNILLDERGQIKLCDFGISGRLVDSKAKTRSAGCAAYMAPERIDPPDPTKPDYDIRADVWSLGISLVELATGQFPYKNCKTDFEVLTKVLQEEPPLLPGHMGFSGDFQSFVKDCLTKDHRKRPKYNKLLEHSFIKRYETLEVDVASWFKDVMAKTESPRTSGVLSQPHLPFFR
# Outline: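 GST-MKK7 (42 nM) coated in Tris pH 7.5 buffer, 16 h, 4 °C; biotin-hGadd45β (21 nM) added with competitor peptides (0.01–100 nM), 1 h, 37 °C. Streptavidin-HRP/o-phenylenediamine read at 490 nm; binding expressed as % of signal without competitor.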
# [3] = system: sh-NS-expressing ARH-77 cells
# [4] = system: primary multiple myeloma cells; test: Trypan blue exclusion assay in primary multiple myeloma cells from patients; format: cell-based, human; conditions: 1 μM or 10 μM, 48 hrs, 5 patients
# From the text: To confirm that Z-/mDTPs retain cytotoxic activity in primary multiple myeloma cells, we examined the effects of Z-DTP1 and Z-DTP2 on the survival of multiple myeloma cells isolated from patients with a clinical diagnosis of multiple myeloma. To this end, multiple myeloma cells were purified from bone marrow (BM) aspirates of multiple myeloma patients by […], using CD138-conjugated magnetic beads, essentially as described in the reference by Hideshima T. et all 2006, Blood 107: 4053-4062. The purity of multiple myeloma cells was confirmed by flow cytometric, using and CD138 and anti-CD45 antibodies, also essentially in accordance with the procedure described in the reference by Hideshima T. et all 2006, Blood 107: 4053-4062. Purified CD138^+ BM cells were then cultured at a concentration of 4×10^5 cells/ml in wells of 96-well plates and treated with either 1 μM or 10 μM of Z-DTP1, Z-DTP2 or Z-DNC for 48 hrs. Cell viability was measured by cell counting using trypan blue exclusion assays (FIGS. 14A, 14B, 14C, 14D, and 14E).
# [5] = system: U266, KMS-11, NCI-H929, BJAB and U937 tumour cell lines; test: [3H]thymidine incorporation assay in tumour cell lines at 10 μM; format: cell-based, human; conditions: up to 144 hrs, result in words
# Protocol: All experiments were performed in triplicate.
# [6] = Table V, FIG. 3C, read-out: IC50 ELISA
"IC50 ([2]; Table V, peptides 0.01-10 nM, read-out: IC50 ELISA) [nM]",Structure (SMILES),IC50 [1] [nM],IC50 [3] [nM],cytotoxic activity in primary multiple myeloma cells [4],tumoricidal/cytotoxic activity in tumour cell lines [5],IC50 [2] [nM],"IC50 [2, 6] [nM]"
0.22,"NC(=O)[C@@H](Cc1ccccc1)NC(=O)[C@@H](Cc1c[nH]cn1)NC(=O)[C@@H](CC(=O)O)NC(=O)[C@@H](Cc1ccc(O)cc1)NC(=O)OCc1ccccc1 [Compound 1, Z-Tyr-Asp-His-Phe-NH2] (Cbz-[dY][dD][dH][dF]-NH2)",> 10000,1400,strong cytotoxic activity,–,–,–
–,"N=C(N)NCCC[C@@H](NC(=O)[C@@H](CCC(=O)O)NC(=O)[C@@H](Cc1ccc(O)cc1)NC(=O)OCc1ccccc1)C(=O)N[C@H](Cc1ccccc1)C(N)=O [Compound 9, Z-D-Tyr-D-Glu-D-Arg-D-Phe-NH2] (Cbz-[dY][dE][dR][dF]-NH2)",> 10000,302,strong cytotoxic activity,high cytotoxic activity,–,–
–,"CC(=O)N[C@H](Cc1ccc(O)cc1)C(=O)N[C@H](CCCNC(=N)N)C(=O)N[C@H](Cc1ccccc1)C(N)=O [Compound 17, Ac-D-Tyr-D-Arg-D-Phe-NH2] (Ac-[dY]-[dR]-[dF]-NH2)",> 10000,303,Strong cytotoxic activity,–,0.157,–
–,"CC(=O)N[C@H](Cc1ccc(O)cc1)C(=O)N[C@H](CC(=O)O)C(=O)N[C@H](Cc1c[nH]cn1)C(=O)N[C@H](Cc1ccccc1)C(N)=O [DTP1, Acetyl-(D-Tyr)-(D-Asp)-(D-His)-(D-Phe)-NH2] (Ac-[dY][dD][dH][dF]-NH2)",–,–,–,not,–,0.22
–,"CC(=O)N[C@H](Cc1ccc(O)cc1)C(=O)N[C@H](CCC(=O)O)C(=O)N[C@H](CCCNC(=N)N)C(=O)N[C@H](Cc1ccccc1)C(N)=O [DTP2, Acetyl-(D-Tyr)-(D-Glu)-(D-Arg)-(D-Phe)-NH2] (Ac-[dY][dE][dR][dF]-NH2)",–,–,–,inactivity,–,0.19
